# From patent publication US20140066365A1, “USE OF CALIXARENES ASSOCIATED WITH AN ANTIBIOTIC IN THE TREATMENT OF BACTERIAL INFECTIONS” (priority 2011, published 2014)
# Where “and” joins values, the source holds several entries; their conditions need not be identical. Equal entries are not always repeated. Where two headings read alike, the source gives them in different places.
# Assays:
# [1] = tested on: Pseudomonas aeruginosa strain ATCC 27853 (wild type); test: MIC of the compounds used alone, microdilution in a liquid medium (CLSI); type: cell-based; settings: P. aeruginosa ATCC 27853
# Excerpt: (§1) The MICs of the antibiotics were previously defined for each strain, by the method of microdilution in a liquid medium (CLSI (Clinical and Laboratory Standards Institute), 2003).
# [2] = tested on: Pseudomonas aeruginosa strain PaR3; test: as above; type: cell-based
# Excerpt: as §1
# [3] = tested on: Staphylococcus aureus strain ATCC 29213 (wild type); test: as above; type: cell-based; settings: S. aureus ATCC 29213
# Excerpt: as §1
# [4] = tested on: mucoid strain of Pseudomonas aeruginosa PaR5; test: as above; type: cell-based
# Excerpt: as §1
# [5] = as above; type: cell-based, Staphylococcus aureus; settings: Staphylococcus aureus, MRSA; antibiotic alone (second value of cell); SaR4; read-out: MIC
# Excerpt: as §1
# [6] = tested on: MRSA strain having a resistance to the aminoglycosides and fluoroquinolones (SaR3); test: as above; type: cell-based, Staphylococcus aureus; settings: SaR3
# Excerpt: as §1
# [7] = tested on: MRSA strain without associated resistance (SaR1); test: as above; type: cell-based, Staphylococcus aureus; settings: SaR1
# Excerpt: as §1
# [8] = tested on: Pseudomonas aeruginosa strain PaR2; test: microbe, parasite or virus in culture; type: cell-based
# Excerpt: as §1
# [9] = tested on: EcR1: Penicillinase-Producing Escherichia coli without Associated Resistance; test: Antibiogram by the disk diffusion technique; type: cell-based
# Description: 5.1 EcR1: Penicillinase-Producing Escherichia coli without Associated Resistance The bacterial and antibiogramidentification is carried out by the VITEK 2 system (bioMérieux) and by the disk diffusion technique.
# [10] = tested on: EcR3: ESBL-Producing Escherichia coli; test: Antibiogram by the disk diffusion technique; type: cell-based
# Description: The bacterial and antibiogramidentification is carried out by the VITEK 2 system (bioMerieux) and by the disk diffusion technique
# [11] = tested on: SaR1: Meticillin-Resistant Staphylococcus aureus without Associated Resistance; test: Antibiogram, MIC by the VITEK 2 system; type: cell-based; settings: SaR1; for CA-SFM Interpretation: Cc CA-SFM 2011; for EUCAST Interpretation: Cc EUCAST 2011; for Results: from MIC
# Description: (§2) The bacterial and antibiogramidentification is carried out by the VITEK 2 system (bioMérieux)
# [12] = tested on: PaR5: Pseudomonas aeruginosa; test: Antibiogram by the disk diffusion technique; type: cell-based
# Description: (§3) The bacterial and antibiogramidentification is carried out by the VITEK 2 system (bioMérieux) and by the disk diffusion technique
# [13] = tested on: SaR3: Meticillin-Resistant Staphylococcus aureus; test: Antibiogram by the disk diffusion technique; type: cell-based; settings: for CA-SFM Interpretation: Cd CA-SFM 2011; for Diameter: Table E1; for Results: Table E1, against Dmin Dmax; for diameter in mm: Table E2
# Description: as §3
# [14] = tested on: SaR4: Meticillin-Resistant Staphylococcus aureus; test: Antibiogram, MIC by the VITEK 2 system; type: cell-based; settings: SaR4; for CA-SFM Interpretation: Cc CA-SFM 2011; for EUCAST Interpretation: Cc EUCAST 2011; for MIC: Staphylococcus aureus, read-out: MIC
# Description: as §3
# [15] = tested on: PaR2: Pseudomonas aeruginosa; type: cell-based
# Description: as §3
# [16] = tested on: Escherichia coli, Staphylococcus aureus and Pseudomonas aeruginosa strains; test: Chessboard technique, summary statements over all strains and combinations tested; type: cell-based; settings: strain not stated
# Excerpt: 1.3. Procedure: Chessboard Technique
# The same procedure is followed for the Cx1. […] Thus 64 ATB/Cx1 combinations are obtained.
# The FIC (Fractional Inhibitory Concentration Index) value is defined by the following formula: […]
# When FIC≦0.5, there is a synergistic effect between antibiotic A and antibiotic B.
# When 0.5<FIC≦1, there is an additive effect between antibiotic A and antibiotic B.
# When 1<FIC≦4, there is an indifferent effect between antibiotic A and antibiotic B.
# When FIC>4, there is an antagonistic effect between antibiotic A and antibiotic B.
# For each strain and each antibiotic/Cx1 combination, the experiments were repeated a minimum of 3 times.
# [17] = tested on: SaR1: Meticillin-Resistant Staphylococcus aureus without Associated Resistance; test: Antibiogram, inhibition diameter (Table D1); type: cell-based; settings: for Results: from diameter, against Dmin Dmax
# Description: as §2
# [18] = tested on: MRSA strain having a resistance to the aminoglycosides, fluoroquinolones, macrolides-lincosamides-synergistins and ofloxacin (SaR4); test: MIC of the compounds used alone, microdilution in a liquid medium (CLSI); type: cell-based, Staphylococcus aureus; settings: SaR4
# Excerpt: as §1
# [19] = tested on: ESBL-producing strain of Escherichia coli, having an associated resistance to the aminoglycosides (EcR3); test: as above; type: cell-based; settings: Cx1 alone (first value of cell)
# Excerpt: as §1
# [20] = tested on: Escherichia coli strain ATCC 25922 (wild type); test: as above; type: cell-based; settings: E. coli ATCC 25922
# Excerpt: as §1
# [21] = tested on: cephalosporinase-hyperproducing strain of Escherichia coli (EcR2); test: as above; type: cell-based; settings: Cx1 alone (first value of cell)
# Excerpt: as §1
# [22] = tested on: penicillinase-producing strain of Escherichia coli without associated resistance (EcR1); test: as above; type: cell-based; settings: Cx1 alone (first value of cell)
# Excerpt: as §1
# [23] = Pseudomonas aeruginosa, antibiotic alone (second value of cell), read-out: MIC
# [24] = Staphylococcus aureus, MRSA, antibiotic alone (second value of cell), read-out: MIC
# [25] = antibiotic alone (second value of cell)
# [26] = Cx1 alone (first value of cell)
compound,measurement,setting,value
C[C@@H]1O[C@@H]1P(=O)(O)O [Fosfomycin],MIC,"[1]; Pseudomonas aeruginosa, ATCC27853, antibiotic alone (second value of cell), read-out: MIC",16 µg/mL
same,MIC,[2]; [23],> 64 µg/mL
same,MIC,"[3]; Staphylococcus aureus, ATCC29213, antibiotic alone (second value of cell), read-out: Initial MICs",8 µg/mL
same,MIC,[4]; [23],16 µg/mL
same,MIC,[5],128 µg/mL
same,MIC,[6]; [24],16 mg/L
same,MIC,[7]; [24],2 mg/L
same,MIC,[8]; [23],64 µg/mL
same,MIC mg/L (diameter in mm),"[9]; EcR1, cells that print a diameter, Table A2",24 mm
same,CA-SFM Interpretation,"[9]; EcR1, diameter against CA-SFM 2011 limits",Susceptible
same,CLSI Interpretation,"[9]; EcR1, diameter against CLSI 2011 limits",Susceptible
same,Diameter,"[9]; EcR1, disk diffusion, Table A1",24 mm
same,Results,"[9]; EcR1, interpretation of the diameter against Dmin Dmax, Table A1",Susceptible
same,CA-SFM Interpretation,[10]; Cd CA-SFM 2011,Susceptible
same,CLSI Interpretation,[10]; Cd CLSI 2011,Susceptible
same,Diameter,[10]; Table C1,23 mm
same,Results,"[10]; Table C1, against Dmin Dmax",Susceptible
same,diameter in mm,[10]; Table C2,23 mm
same,CA-SFM Interpretation,[11],Susceptible
same,EUCAST Interpretation,[11],Susceptible
same,Results,[11]; Table D1,Susceptible
same,MIC mg/L,[11]; Table D2,≦8 mg/L
same,MIC,"[11]; Staphylococcus aureus, Table D1, read-out: MIC",≤ 8 µg/mL
same,Diameter,"[12]; PaR5, Table I1",30 mm
same,Results,"[12]; PaR5, Table I1, against Dmin-Dmax",Susceptible
same,diameter in mm,"[12]; disk diffusion inhibition diameter, strain PaR5",30 mm
same,CA-SFM Interpretation,"[12]; disk diffusion, PaR5, versus critical diameter CA-SFM 2011",Susceptible
same,CA-SFM Interpretation,[13],Susceptible
same,Diameter,[13],26 mm
same,Results,[13],Susceptible
same,diameter in mm,[13],26 mm
same,Results,"[14]; Table F1, MIC",Resistant
same,CA-SFM Interpretation,[14]; from MIC,Resistant
same,EUCAST Interpretation,[14]; from MIC,Resistant
same,MIC,[14]; Table F1,≥ 64 µg/mL
same,MIC,"[14]; Table F2, MIC",≥ 64 µg/mL
same,CA-SFM Interpretation,[15]; Cd CA-SFM 2011,Resistant
same,Diameter,[15]; Table G1,13 mm
same,Results,"[15]; Table G1, against Dmin-Dmax",Resistant
same,diameter in mm,[15]; Table G2,13 mm
same,interaction between the antibiotic and Cx1,[16],synergism
same,Diameter,[17],40 mm
same,Results,[17],Susceptible
CC1(C)S[C@@H]2[C@H](NC(=O)Cc3ccccc3)C(=O)N2[C@H]1C(=O)O [Penicillin G],Initial MICs,[3]; [25],1 mg/L
same,MIC,[6]; [25],0.5 mg/L
same,MIC,[18]; [25],4 mg/L
same,MIC,[7]; [25],0.5 mg/L
same,CA-SFM Interpretation,[11],Resistant
same,CLSI Interpretation,[11]; Cc CLSI 2011,Resistant
same,EUCAST Interpretation,[11],Resistant
same,MIC mg/L,[11]; Table D1,≧0.5 mg/L
same,Results,[11]; Table D1,Resistant
same,MIC mg/L,[11]; Table D2,≧0.5 mg/L
same,CA-SFM Interpretation,[13],Resistant
same,CLSI Interpretation,[13]; Cd CLSI 2011,Resistant
same,EUCAST Interpretation,[13]; Cd EUCAST 2011,Resistant
same,Diameter,[13],26 mm
same,Results,[13],Resistant
same,diameter in mm,[13],26 mm
same,Results,"[14]; Table F1, MIC",Resistant
same,CA-SFM Interpretation,[14]; from MIC,Resistant
same,CLSI Interpretation,"[14]; from MIC, Cc CLSI 2011",Resistant
same,EUCAST Interpretation,[14]; from MIC,Resistant
same,Diameter,[17],28 mm
same,Results,[17],Resistant
para-guanidinoethylcalix[4]arene [Cx1],Initial MICs,[19],2 mg/L
same,Initial MICs (mg/L),[19],2/2 mg/L
same,Initial MICs,[20]; [26],4 mg/L and 2 mg/L
same,Initial MICs (mg/L),[20]; [26],4/4 mg/L
same,"Initial MICs (mg/L), Cx1",[20]; Cx1 alone,4 mg/L
same,MIC,[1]; [26],32 µg/mL
same,"Initial MICs (mg/L), Cx1",[1]; Cx1 alone,32/32 mg/L and 32 mg/L
same,MIC,[2]; [26],32 µg/mL
same,MIC mg/L,[2]; [26],32/32 mg/L
same,Initial MICs,[3]; [26],8 mg/L
same,Initial MICs (mg/L),[3]; [26],8/8 mg/L
same,"Initial MICs (mg/L), Cx1",[3]; Cx1 alone,8 mg/L
same,Initial MICs,[21],2 mg/L
same,Initial MICs (mg/L),[21],2/2 mg/L
same,MIC,[4]; [26],32 µg/mL
same,MIC mg/L,[4]; [26],32/32 mg/L
same,Initial MICs,[22],2 mg/L
same,MIC,[6]; [26],8 mg/L
same,MIC mg/L,[6]; [26],8/8 mg/L
same,MIC,[18]; [26],8 mg/L
same,MIC,[7]; [26],8 mg/L
same,MIC,[8]; [26],32 µg/mL
